Where “and” joins values, the source holds several entries; their conditions need not be identical. Equal entries are not always repeated.
How the values were obtained:
[1] = target: T1, Recombinant human Arg2 (Homo sapiens, UniProt P78540); assay: Recombinant arginase activity assay, Arg2; type: biochemical; conditions: mean (SD), N=2, 20 mM L-arginine
T1 construct: Recombinant human arginase 2 (Arg2) comprising amino acids […] was purchased from US Biological; purchased US Biological
T1 sequence (P78540 23-354): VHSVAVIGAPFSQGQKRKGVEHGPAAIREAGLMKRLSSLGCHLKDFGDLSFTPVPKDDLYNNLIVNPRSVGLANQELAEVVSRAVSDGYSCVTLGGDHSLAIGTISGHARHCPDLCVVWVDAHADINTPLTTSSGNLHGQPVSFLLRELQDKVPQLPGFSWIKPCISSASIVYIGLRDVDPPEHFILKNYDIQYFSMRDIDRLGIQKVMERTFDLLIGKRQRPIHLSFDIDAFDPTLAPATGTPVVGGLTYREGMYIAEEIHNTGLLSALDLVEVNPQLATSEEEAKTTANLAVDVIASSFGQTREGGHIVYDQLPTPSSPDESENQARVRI
Excerpt: Recombinant arginase activity assays. […] Recombinant human arginase 2 (Arg2) comprising amino acids […] was purchased from US Biological (Salem, Mass.).
Standard deviations are indicated in parentheses. […] N/A=not applicable.

[2] = test system: B16.F10 tumor; assay: Example 1: arginase inhibitor with adoptive immunotherapy, B16.F10 tumors; type: in vivo, mouse; conditions: 100 mg/kg twice a day, vs adoptive T cell therapy only; survival P value 0.0137
Protocol: In order to test the effect of arginase inhibitors and adoptive immunotherapy on cancer progression, mice were inoculated with B16.F10 cells to generate a tumor. Approximately 1×10^6 cells were implanted in C57.Bl/6 mice. Mice were then treated with non-myeloablative chemotherapy (Cyclophosphamide 250 mg/kg and Fludarabine 50 mg/kg). Cyclophosphamide and Fludarabine were dosed via intraperitoneal injection on day 7 (FIG. 1A, orange arrow). Pme1-1 CD8 T cells (1×10^6) were intravenously transferred on day 8 (FIG. 1A, blue arrow). Recombinant human IL-2 (200,000 UI) was dosed via intraperitoneal injection twice a day on days 8, 9, 10 in mice receiving adoptive immunotherapy. […] Survival curves can be seen in FIG. 1C. P value is 0.0137, and was calculated by Mantel-Cox test. (N=9-10 per group).

[3] = Pharmacokinetic and pharmacodynamic study in LLC tumor-bearing mice; type: in vivo, mouse
Excerpt: (****P<0.0001; ***P<0.001; **P<0.01 vs. vehicle).

[4] = test system: CT26 lung metastases; assay: Adoptive NK cell transfer study, CT26 lung metastasis model; type: in vivo, mouse; conditions: compared to control groups, 14 days
Protocol: Adoptive NK cell transfer studies. Balb/c mice were inoculated i.v. with 1×10^5 CT26 cells. 1×10^6NK cells (isolated from Balb/c spleens the day before injection and incubated with recombinant IL-2 and IL-15 for 18 h) were transferred on the same day as tumor inoculation. The injected NK cells were profiled by flow cytometry to be CD25^+ and 80-90% pure with less than 0.4% T cells.

[5] = Tolerability and body weight in mice; type: in vivo
Excerpt: (§1) Murine tumor studies. Female wild-type C57BL/6 and Balb/c mice (5-6 weeks old) were purchased from Charles River Laboratories (Hollister, Calif.). Severe combined immune deficient (SCID, B6.CB17-PrkdcSCID/SzJ) and Pmel-1 TCR transgenic (B6.Cg-Thyla/Cy Tg(TcraTcrb)8Rest/J) mice (5-6 weeks old) were purchased from The Jackson Laboratory (Bar Harbor, Me.). All mice were housed and treated in accordance with Institutional Animal Care and Use Committee guidelines. For the 4T1 tumor model, 1×10^5 cells were injected orthotopically into the mammary fat pad; for all other tumor models, 1×10^6 cells were injected subcutaneously (s.c.) in the right flank. […] Control groups received vehicle (water) twice daily by gavage. Tumor volume measured by digital caliper (length×width×width/2) and body weight were recorded three times weekly. Animals were euthanized when tumors necrotized or volumes reached 2000 mm^3. Anti-PD-L1 antibody (5 mg/kg, clone 10F.9G2, BioXCell, West Lebanon, N.H.) was injected intraperitoneally (i.p.) on days 5, 7, 9, 11, 13, and 15 for the CT26 model. Gemcitabine (Selleckchem, Houston, Tex.) was dosed 50 mg/kg i.p. on days 10 and 16 for the CT26 model or 60 mg/kg i.p. on days 6 and 10 for the LLC model. For CD8^+ cell depletion, mice were injected i.p. with anti-CD8 antibody (25 mg/kg, clone 2.43, BioXCell) on days −1, 0, +5, and +10. […]

[6] = test system: B16 tumors; assay: B16 syngeneic tumor model; type: in vivo
Excerpt: Murine tumor studies. Female wild-type C57BL/6 and Balb/c mice (5-6 weeks old) were purchased from Charles River Laboratories (Hollister, Calif.). Severe combined immune deficient (SCID, B6.CB17-PrkdcSCID/SzJ) and Pmel-1 TCR transgenic (B6.Cg-Thyla/Cy Tg(TcraTcrb)8Rest/J) mice (5-6 weeks old) were purchased from The Jackson Laboratory (Bar Harbor, Me.). All mice were housed and treated in accordance with Institutional Animal Care and Use Committee guidelines. For the 4T1 tumor model, 1×10^5 cells were injected orthotopically into the mammary fat pad; for all other tumor models, 1×10^6 cells were injected subcutaneously (s.c.) in the right flank. […] Control groups received vehicle (water) twice daily by gavage. Tumor volume measured by digital caliper (length×width×width/2) and body weight were recorded three times weekly. Animals were euthanized when tumors necrotized or volumes reached 2000 mm^3. Anti-PD-L1 antibody (5 mg/kg, clone 10F.9G2, BioXCell, West Lebanon, N.H.) was injected intraperitoneally (i.p.) on days 5, 7, 9, 11, 13, and 15 for the CT26 model. Gemcitabine (Selleckchem, Houston, Tex.) was dosed 50 mg/kg i.p. on days 10 and 16 for the CT26 model or 60 mg/kg i.p. on days 6 and 10 for the LLC model. For CD8^+ cell depletion, mice were injected i.p. with anti-CD8 antibody (25 mg/kg, clone 2.43, BioXCell) on days −1, 0, +5, and +10. For NK cell depletion, mice were injected i.p. with anti-NK1.1 antibody (25 mg/kg, clone PK136, BioXCell) in the LLC and B16 models or with anti-Asialo GM1 sera (20 μL, Wako Chemicals, Richmond, Va.) in the CT26 model, per the same schedule as anti-CD8.
Tumor dissociation and flow cytometry. […] All tumor flow experiments were acquired on an Attune N×T flow cytometer and analyzed with FlowJo software version 10 (Ashland, Oreg.), using fluorescence-minus-one controls for gating and single-stained OneComp eBeads (eBioscience) to set compensation matrices.

[7] = test system: LLC tumors; assay: LLC tumors in SCID mice; type: in vivo, mouse; conditions: 100 mg/kg PO twice daily
Protocol: Tumors from LLC studies were analyzed on study day 13 (CD8^+ cell depletion) or study day 14 (NK cell depletion). (****P<0.0001; ***P<0.001; **P<0.01).
as §1, with “model.” for “model. For CD8^+ cell depletion, mice were injected i.p. with anti-CD8 antibody (25 mg/kg, clone 2.43, BioXCell) on days −1, 0, +5, and +10.”

[8] = test system: 4T1 cell line; assay: Cytotoxicity assay (CellTiterGlo), 4T1; type: cell-based, murine; conditions: 1 mM arginase inhibitor, 72 h
Protocol: Cytotoxicity assays. […] Cytotoxicity was assayed by the addition of CellTiterGlo reagent according to the manufacturer's instructions (Promega, Madison, Wis.) followed by […] quantification on a Molecular Devices plate reader (Sunnyvale, Calif.).

In the case of C[C@H](N)C(=O)N1C[C@H](CCCB(O)O)[C@](N)(C(=O)O)C1 [arginase inhibitor], the IC50 [1] is reported as 274 nM and 296 nM, the “Tumor volume over 25 days, combination with adoptive T cell therapy” value [2] is reported as “slower tumor progression” and the “L-arginine in tumor and plasma” value ([3]; oral dosing, tumor-bearing mice) is reported as “raised the amount of L-arginine”. For the same molecule, the “Exposure of arginase inhibitor in tumor and plasma” value ([3]; single dose or BID dosing for 5 days, oral, 2 h after last dose) was “dose-dependent exposure”, the “Lung metastases, combination with NK cells” value [4] was “significantly fewer lung metastases” and the Tolerability ([5]; 100 mg/kg twice daily for 23 days, no significant clinical observations or impact on body weight) was “well-tolerated”. The “Duration for which twice-daily oral dosing was well-tolerated” value ([5]; mice) was “at least 40 days”, the “Tumor growth, single agent” value ([6]; 100 mg/kg BID PO) was “significantly inhibited the growth” and the “Tumor-infiltrating activated CD25+ CD8+ cytotoxic T cells vs vehicle” value ([6]; 100 mg/kg BID, study day 9, flow cytometry) was “increase”. For the same molecule, the “Efficacy after depletion of either CD8+ cells or NK cells” value ([6]; 100 mg/kg twice daily, depleting antibodies) was “blocked the efficacy”, the “Efficacy on LLC tumor growth in the SCID background” value [7] was “abrogated” and the “Growth inhibition of 4T1 cell line” value [8] was “No growth inhibition”.

Reference: patent US11291674B2 (CALITHERA BIOSCIENCES, INC., priority 2016, dated 2022)
